Test results: BindingDB's records for doi:10.1042/BJ20021535 (University of Dundee, 2003)

Assays:
[1] = target: Casein kinase I isoform delta (Rattus norvegicus, UniProt Q06486)
[2] = target: Cyclin-dependent kinase 2 (Homo sapiens, UniProt P24941)
[3] = target: Dual specificity tyrosine-phosphorylation-regulated kinase 1A (Rattus norvegicus, UniProt Q63470)
[4] = target: T1, Serine/threonine-protein kinase Sgk1 (Homo sapiens, UniProt O00141)
T1 sequence (O00141 whole entry): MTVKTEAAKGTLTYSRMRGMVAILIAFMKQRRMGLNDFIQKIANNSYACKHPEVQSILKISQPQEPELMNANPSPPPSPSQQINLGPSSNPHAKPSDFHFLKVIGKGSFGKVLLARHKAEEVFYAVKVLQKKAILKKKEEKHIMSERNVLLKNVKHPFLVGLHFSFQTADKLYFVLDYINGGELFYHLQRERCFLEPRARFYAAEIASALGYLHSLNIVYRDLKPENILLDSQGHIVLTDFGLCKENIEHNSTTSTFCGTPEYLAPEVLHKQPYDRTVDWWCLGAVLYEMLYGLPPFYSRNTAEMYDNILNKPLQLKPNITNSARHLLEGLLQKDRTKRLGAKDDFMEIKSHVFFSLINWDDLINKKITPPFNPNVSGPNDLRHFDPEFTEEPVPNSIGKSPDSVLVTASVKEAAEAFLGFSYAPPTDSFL

[5] = target: Tyrosine-protein kinase Lck (Homo sapiens, UniProt P06239)
Chain of Tyrosine-protein kinase Lck (P06239 whole entry): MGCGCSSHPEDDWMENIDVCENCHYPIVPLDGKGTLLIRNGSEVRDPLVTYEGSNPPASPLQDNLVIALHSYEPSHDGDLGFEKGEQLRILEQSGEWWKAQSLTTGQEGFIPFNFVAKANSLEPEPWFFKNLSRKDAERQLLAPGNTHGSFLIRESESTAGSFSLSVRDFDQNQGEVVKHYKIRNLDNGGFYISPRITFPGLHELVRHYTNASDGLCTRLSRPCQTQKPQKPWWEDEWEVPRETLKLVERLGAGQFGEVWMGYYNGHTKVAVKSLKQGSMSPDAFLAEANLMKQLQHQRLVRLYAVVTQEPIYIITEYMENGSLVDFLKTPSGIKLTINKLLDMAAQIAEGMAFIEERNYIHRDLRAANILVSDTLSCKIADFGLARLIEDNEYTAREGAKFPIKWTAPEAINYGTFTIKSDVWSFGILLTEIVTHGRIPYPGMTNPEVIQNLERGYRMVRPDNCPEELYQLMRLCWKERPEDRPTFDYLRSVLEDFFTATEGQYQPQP

[6] = target: Ninein (Homo sapiens, UniProt Q8N4C6)
Chain of Ninein (Q8N4C6 whole entry): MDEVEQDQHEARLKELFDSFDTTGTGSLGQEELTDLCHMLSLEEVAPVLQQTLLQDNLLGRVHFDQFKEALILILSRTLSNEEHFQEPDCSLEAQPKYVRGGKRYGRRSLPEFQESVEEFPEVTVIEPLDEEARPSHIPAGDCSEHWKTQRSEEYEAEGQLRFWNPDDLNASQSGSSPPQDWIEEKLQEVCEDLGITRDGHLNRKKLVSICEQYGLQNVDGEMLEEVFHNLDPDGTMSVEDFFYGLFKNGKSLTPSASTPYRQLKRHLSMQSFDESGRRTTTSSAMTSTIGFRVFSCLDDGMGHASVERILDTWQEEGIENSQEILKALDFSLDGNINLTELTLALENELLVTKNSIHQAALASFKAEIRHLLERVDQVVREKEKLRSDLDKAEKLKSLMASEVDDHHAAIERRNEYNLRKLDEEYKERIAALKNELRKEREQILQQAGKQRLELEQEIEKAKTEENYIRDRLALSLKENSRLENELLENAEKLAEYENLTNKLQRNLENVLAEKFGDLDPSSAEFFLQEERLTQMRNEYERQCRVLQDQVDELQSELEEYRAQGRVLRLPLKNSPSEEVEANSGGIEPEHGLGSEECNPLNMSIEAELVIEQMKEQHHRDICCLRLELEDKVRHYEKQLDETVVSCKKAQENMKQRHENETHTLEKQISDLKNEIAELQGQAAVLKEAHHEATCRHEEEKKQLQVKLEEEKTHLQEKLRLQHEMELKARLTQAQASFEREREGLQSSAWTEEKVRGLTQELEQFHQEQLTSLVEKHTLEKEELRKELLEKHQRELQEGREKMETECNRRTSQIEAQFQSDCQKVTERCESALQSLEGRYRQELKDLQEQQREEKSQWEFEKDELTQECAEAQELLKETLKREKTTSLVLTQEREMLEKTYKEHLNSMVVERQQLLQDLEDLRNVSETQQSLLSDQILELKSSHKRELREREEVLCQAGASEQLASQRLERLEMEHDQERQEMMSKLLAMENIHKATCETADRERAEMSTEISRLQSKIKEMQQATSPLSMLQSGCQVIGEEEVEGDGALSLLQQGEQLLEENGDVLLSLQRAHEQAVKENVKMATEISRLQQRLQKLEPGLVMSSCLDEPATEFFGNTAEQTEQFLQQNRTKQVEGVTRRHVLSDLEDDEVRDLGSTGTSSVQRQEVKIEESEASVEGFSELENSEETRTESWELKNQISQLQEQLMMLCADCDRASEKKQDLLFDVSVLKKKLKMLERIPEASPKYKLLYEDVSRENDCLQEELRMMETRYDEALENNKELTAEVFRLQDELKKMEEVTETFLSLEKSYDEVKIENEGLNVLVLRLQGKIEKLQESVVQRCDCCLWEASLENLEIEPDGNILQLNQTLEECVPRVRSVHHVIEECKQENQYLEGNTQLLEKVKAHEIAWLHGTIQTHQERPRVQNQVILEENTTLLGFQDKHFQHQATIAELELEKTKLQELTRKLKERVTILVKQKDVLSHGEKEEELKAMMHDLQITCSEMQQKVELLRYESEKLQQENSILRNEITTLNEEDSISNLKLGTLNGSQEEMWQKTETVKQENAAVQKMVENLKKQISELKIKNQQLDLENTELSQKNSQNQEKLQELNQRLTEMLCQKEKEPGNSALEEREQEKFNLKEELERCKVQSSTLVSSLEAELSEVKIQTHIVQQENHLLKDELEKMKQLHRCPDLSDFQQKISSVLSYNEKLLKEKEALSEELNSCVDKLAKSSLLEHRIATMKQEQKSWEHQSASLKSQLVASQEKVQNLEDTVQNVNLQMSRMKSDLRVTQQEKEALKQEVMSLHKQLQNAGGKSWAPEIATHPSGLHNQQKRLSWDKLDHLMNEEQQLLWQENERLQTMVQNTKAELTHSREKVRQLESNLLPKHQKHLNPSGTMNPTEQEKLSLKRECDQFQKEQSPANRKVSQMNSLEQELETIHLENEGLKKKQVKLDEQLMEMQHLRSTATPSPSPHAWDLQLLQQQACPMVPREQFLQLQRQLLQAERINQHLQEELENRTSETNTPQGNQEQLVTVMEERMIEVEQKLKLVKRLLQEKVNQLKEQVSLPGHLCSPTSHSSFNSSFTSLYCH

Chain of Casein kinase I isoform delta (Q06486 whole entry, canonical isoform): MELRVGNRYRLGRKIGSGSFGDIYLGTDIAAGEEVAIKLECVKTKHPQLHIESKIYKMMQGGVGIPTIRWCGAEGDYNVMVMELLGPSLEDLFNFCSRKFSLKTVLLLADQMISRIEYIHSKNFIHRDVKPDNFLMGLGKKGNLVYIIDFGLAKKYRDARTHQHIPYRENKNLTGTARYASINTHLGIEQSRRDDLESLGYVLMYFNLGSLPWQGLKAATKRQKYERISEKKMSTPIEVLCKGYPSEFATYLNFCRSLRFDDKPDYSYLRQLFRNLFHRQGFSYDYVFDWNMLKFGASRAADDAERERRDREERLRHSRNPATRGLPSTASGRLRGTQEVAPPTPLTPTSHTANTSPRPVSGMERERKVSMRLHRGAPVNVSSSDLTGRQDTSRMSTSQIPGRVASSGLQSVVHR

SMILES	Ki [1] [µM]	Ki [2] [µM]	Ki [6] [µM]	further results
Nc1ncnc2c1cnn2-c1ccccc1 [1-Phenyl-1H-pyrazolo[3,4-d]pyrimidin-4-ylamine]	9.9			
CC[C@H](CO)Nc1nc(NCc2ccccc2)c2ncn(C(C)C)c2n1 [2,6,9-Trisubstituted purine deriv. 28]	> 10			
CC(C)[C@H](CO)Nc1nc(Nc2cccc(Cl)c2)c2ncn(C(C)C)c2n1 [(2R)-2-({6-[(3-chlorophenyl)amino]-9-(propan-2-yl)-9H-purin-2-yl}amino)-3-methylbutan-1-ol]		0.1		Ki [3]: 0.3 µM
O=Nc1c(C2C(=O)Nc3ccccc32)[nH]c2ccccc12 (centres undefined) [Indirubin-3 -monoxime]		0.59	0.19	Ki [4]: 0.38 µM; Ki [5]: 0.3 µM
O=C1Cc2c([nH]c3ccc([N+](=O)[O-])cc23)-c2ccccc2N1 [NSC 705701]			0.11	
